# Experimental data as given in patent US10232013B2, “Use of an antimicrobial peptide TP4 in treating a cancer” (Academia Sinica, priority 2016, dated 2019).
# Marks after values point to notes of the source that are not given here. Where no end group is shown, it is not given here.
# Experiments:
# MB231 tumors = test system: MB231 tumors; set-up: species or system BALB/c nu/nu mice; conditions: in vivo
# Description: Female BALB/c nu/nu mice were obtained from BioLASCO Taiwan, Co., Ltd., and housed at the Laboratory Animal Facility, National Taiwan Ocean University, Keelung, Taiwan. Mice were maintained in pathogen-free sterile isolators, according to the guidelines of the Council of Agriculture (COA, Taiwan), and all food, water, caging, and bedding were sterilized before use. The animal protocol (103034) was approved by the Institutional Animal Care and Use Committee (IACUC) of the College of Life Science, National Taiwan Ocean University. For the TP4 treatment assay, nude mice with pre-growth MB231 tumors (n=5 for each group) were subcutaneously injected with TP4 (500 μg in 50 μL distilled water plus 10 μL KY jelly (Johnson & Johnson)) every two days for a total of fourteen times, by which time the tumors had reached an average volume of 30-50 mm^3 in size. Age-matched control nude mice without tumor xenografts were injected with KY jelly (10 μL plus 50 μL distilled water). Tumor size was calculated every two days, using the following formula: volume=[(height×length×width)×3.1416]/6. Mice were sacrificed 28 days after the beginning of TP4 treatment, and the tumors were harvested and weighed. Tumor samples were fixed with formalin and embedded with paraffin. Paraffin sections were stained by Hematoxylin & Eosin (H&E) and immunostained with Ki-67 antibody (Cell Signaling, clone D2H10, 1:100). […]
# MCF7 cells = assay: MTS cell viability assay, MCF7; type: cell-based, human; conditions: mean±SD
# Description: Cell-lines used in this study were purchased from the Bioresource Collection and Research Center (BCRC) in and the cells were cultured by the standard cell culture procedures and conditions provided by the BCRC. MB231 (BCRC 60425), MB453 (BCRC 60429), and HDF cells were cultured as previously described by Ting et al. MCF7 […] cells were maintained in α-MEM medium (ThermoFisher Scientific) supplemented with 2 mM L-glutamine, 10% FBS, 0.1 mM non-essential amino acids, 1 mM sodium pyruvate, and antibiotics (100 U mL^−1 penicillin G and […] streptomycin). M10 (BCRC 60197) cells were maintained in α-MEM medium (ThermoFisher Scientific) supplemented with 10% FBS and antibiotics. With the exception of MB231 and MB453, all cells were cultured at 37° C. with 5% CO2. For the cell viability and transfection assay, 1×10^4 cells [5×10^3 M10 cells were seeded and cultured for 48 h to allow the cells sufficient time for attachment] were seeded into the wells of a 96-well plate and cultured overnight. For the transfection assays, cells were transfected with 0.1-0.4 μg FOSB/FOSAB expression plasmid (Origene Technology Inc.) and cell viability was determined after 72 h. The transfection efficiencies (number of cells expressing eGFP/all cells) of the MB231 transfection assays were determined by observing ten randomly selected fields (from three independent transfections) of control GFP plasmid transfections under an inverted microscope (Olympus, IX71) coupled to a digital camera (Olympus DP80), using an […] (LCPlanFI 20×/0.40 Ph1). CellSens standard software (Olympus) was used for image acquisition. During the drug treatment assay, inhibitors (PD98059, BAPTA-AM, and AlP II) were added 30 min prior to TP4, and cell viability was determined at indicated time-points. Transfection was performed using LipofectAMINE™ 3000 (ThermoFisher Scientific), according to the manufacturer's recommendations. Knock-down cells were generated by transducing MB231 cells with pre-synthesized FOSB (or control) shRNA lentiviral particles (Santa Cruz Biotechnology), and selecting puromycin-resistant cells in accordance with the manufacturer's standard protocol. MB231 or M10 cells stably expressing eGFP or mOrange2 were generated through transfection with peGFP-puromycin or pmOrange2-C1 plasmid, followed by puromycin (5 μg mL^−1) or G418 (500 μg mL^−1) selection as described above.
# Cell viability was quantitatively analyzed using the CellTiter-Glo® Luminescent Cell Viability Assay kit (ATP assay) and CellTiter 96® AQueous Non-Radioactive Cell Proliferation Assay kit (MTS assay) (Promega) in accordance with the manufacturer's protocol. For MTS assay, 1×10^4 cells were seeded into the wells of a 96-well plate and cultured overnight [5×10^3 M10 cells were seeded and cultured for 48 h to enable sufficient well attachment]. Cells were subsequently treated with different doses of TP4 (2.5-20 μg mL^−1) and harvested at the indicated time-points (3-24 h). Reaction mixtures (20 μL: MTS+PMS, using a ratio 20:1) were directly added to the cells, and the plates were incubated for 3 h at 37° C. Absorbance at 490 nm is directly proportional to the number of living cells in culture and was measured using a photometer (SpectraMax® i3, Molecular Devices). ATP assay was performed as previously described by Ting et al. Lactate dehydrogenase (LDH) assays were performed by quantitatively measuring cell lysis with a Cytotoxicity Detection Kit^PLUS (LDH) (Roche) in accordance with the manufacturer's protocol. The LDH standard was purchased from Cayman Chemical. Briefly, 1×10^4 cells were seeded into the wells of a 96-well plate and cultured overnight. Culture media were replaced with fresh medium containing 1% FBS and cells were subsequently treated with different doses of TP4 (2.5-20 μg mL^−1). Supernatants were harvested at 3 h. […]
sequence,measurement,setting,value
"FIHHIIGGLFSAGKAIHRLIRRRRR [TP4, tilapia piscidin 4]",mouse body weight,MB231 tumors,no significant differences
same,body weight and adverse side-effects,MB231 tumors; mouse,without affecting body weight or causing adverse side-effects
same,"Cellular toxicity (cell viability), MTS assay","MCF7 cells; MCF7, TP4 2.5 μg/mL, 3 h",98.00 ± 6.05^a
same,"Cellular toxicity (cell viability), MTS assay","MCF7 cells; MCF7, TP4 2.5 μg/mL, 6 h",91.20 ± 6.51^b
same,"Cellular toxicity (cell viability), MTS assay","MCF7 cells; MCF7, TP4 2.5 μg/mL, 12 h",93.01 ± 10.60^b
same,"Cellular toxicity (cell viability), MTS assay","MCF7 cells; MCF7, TP4 2.5 μg/mL, 24 h",90.83 ± 5.30^b
same,"Cellular toxicity (cell viability), MTS assay","MCF7 cells; MCF7, TP4 5.0 μg/mL, 3 h",83.74 ± 6.10^d
same,"Cellular toxicity (cell viability), MTS assay","MCF7 cells; MCF7, TP4 5.0 μg/mL, 6 h",79.17 ± 12.06^d
same,"Cellular toxicity (cell viability), MTS assay","MCF7 cells; MCF7, TP4 5.0 μg/mL, 12 h",77.79 ± 7.73^d
same,"Cellular toxicity (cell viability), MTS assay","MCF7 cells; MCF7, TP4 5.0 μg/mL, 24 h",75.19 ± 11.28^d
same,"Cellular toxicity (cell viability), MTS assay","MCF7 cells; MCF7, TP4 10.0 μg/mL, 3 h",75.01 ± 11.15^d
same,"Cellular toxicity (cell viability), MTS assay","MCF7 cells; MCF7, TP4 10.0 μg/mL, 6 h",70.30 ± 12.26^d
same,"Cellular toxicity (cell viability), MTS assay","MCF7 cells; MCF7, TP4 10.0 μg/mL, 12 h",68.89 ± 6.54^d
same,"Cellular toxicity (cell viability), MTS assay","MCF7 cells; MCF7, TP4 10.0 μg/mL, 24 h",67.00 ± 10.90^d
same,"Cellular toxicity (cell viability), MTS assay","MCF7 cells; MCF7, TP4 15.0 μg/mL, 3 h",45.15 ± 9.89^d
same,"Cellular toxicity (cell viability), MTS assay","MCF7 cells; MCF7, TP4 15.0 μg/mL, 6 h",28.28 ± 6.29^d
same,"Cellular toxicity (cell viability), MTS assay","MCF7 cells; MCF7, TP4 15.0 μg/mL, 12 h",26.23 ± 6.08^d
same,"Cellular toxicity (cell viability), MTS assay","MCF7 cells; MCF7, TP4 15.0 μg/mL, 24 h",25.09 ± 3.83^d
same,"Cellular toxicity (cell viability), MTS assay","MCF7 cells; MCF7, TP4 20.0 μg/mL, 3 h",24.63 ± 3.80^d
same,"Cellular toxicity (cell viability), MTS assay","MCF7 cells; MCF7, TP4 20.0 μg/mL, 6 h",15.48 ± 2.33^d
same,"Cellular toxicity (cell viability), MTS assay","MCF7 cells; MCF7, TP4 20.0 μg/mL, 12 h",14.36 ± 2.10^d
same,"Cellular toxicity (cell viability), MTS assay","MCF7 cells; MCF7, TP4 20.0 μg/mL, 24 h",11.90 ± 3.39^d
